Assay results as given in the supplement of paper PMC10949913.

Assays:
Assay in all cases: area under concentration-response curve (viability) (AUC (a.u.)); higher = less active
Conditions in all cases: 48 h
[1] = tested on: CU-ACC1
Summary of the method: (§1)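 Cells from three adrenocortical carcinoma lines were seeded at 500–1,000 cells/well in 5 µL medium in 1,536-well plates. Each library compound was added as 23 nL at 11 concentrations, and after 48 h CellTiter-Glo was added for 15 minutes at room temperature before reading luminescence. Plate-wise normalisation to vehicle and empty-well controls preceded curve fitting. AC50 and area under the curve were calculated only for inhibitory or non-responding curve classes.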

[2] = tested on: CU-ACC2
Summary of the method: as §1

[3] = tested on: NCI-H295R
Summary of the method: as §1

Compound	area under concentration-response curve [1]	area under concentration-response curve [2]	area under concentration-response curve [3]
CN(C)NC(=O)CCC(=O)O	405	410	397
N#CC1(c2ccc(NC(=O)c3cccnc3NCc3ccncc3)cc2)CCCC1	547	531	545
CNC(=O)c1c(C)oc2cc(Oc3ncnc4cc(OC)c(OC)cc34)ccc12	535	624	593
COc1ccccc1OCC(O)CN1CCN(CC(=O)Nc2c(C)cccc2C)CC1 (centres undefined)	535	627	569
COc1cc([C@@H]2c3cc4c(cc3[C@@H](O)C3COC(=O)C32)OCO4)cc(OC)c1O (some centres undefined)	500	559	511
CCC(=O)[N-]S(=O)(=O)c1ccc(-c2c(-c3ccccc3)noc2C)cc1.[Na+]	549	656	595
Cc1n[nH]c2ncc(C(=O)N3CCC[C@H]3c3ccc(Cl)cc3)cc12	414	540	503
CCN1\C(=C(C(=O)NC)/C(=O)C2=C1N=C(C=C2)C#CC(C)(O)COC)N (centres undefined)	482	579	510
CC(C)(CO)n1cc(C(=O)c2cncc(NC(=O)Cc3ccc(Cl)cn3)c2)c2cnc(N)nc21	532	576	496
CCOC(=O)N1CCN(/[N+]([O-])=N/Oc2ccc([N+](=O)[O-])cc2[N+](=O)[O-])CC1	544	644	521
CC(C)=CCC[C@](C)(O[C@@H]1O[C@H](CO[C@@H]2O[C@H](CO)[C@@H](O)[C@H](O)[C@H]2O)[C@@H](O)[C@H](O)[C@H]1O)[C@H]1CC[C@]2(C)[C@@H]1[C@H](O)C[C@@H]1[C@@]3(C)CC[C@H](O[C@@H]4O[C@H](CO)[C@@H](O)[C@H](O)[C@H]4O[C@@H]4O[C@H](CO)[C@@H](O)[C@H](O)[C@H]4O)C(C)(C)[C@@H]3CC[C@]12C	533	637	591
Cc1ccc([S+](=O)([O-])NC(=O)NN2CC3CCCC3C2)cc1 (centres undefined)	537	629	579
CC(C)NCC(O)c1ccc(N[S+](C)(=O)[O-])cc1 (centres undefined)	530	624	570
C=CC(=O)N[C@H]1CCOC[C@H]1Nc1ncc2cc(-c3c(Cl)c(OC)cc(OC)c3Cl)ccc2n1	458	554	453
COc1ccc(/C=C/C(=O)Nc2ccccc2C(=O)O)cc1OC	439	517	496
O=C(Oc1ccc([N+](=O)[O-])cc1)N1CCC(C(O)(c2ccc3c(c2)OCO3)c2ccc3c(c2)OCO3)CC1	495	575	535
CCOCC(O)COc1ccc(NC(=O)CC[S+](C)C)cc1 (centres undefined)	367	394	411
Cc1ccnc(N[S+](=O)([O-])c2ccc(NC(=O)Nc3ccc([S+](=O)([O-])Nc4nccc(C)n4)cc3)cc2)n1	499	566	537
O=C(O)c1ccc(CCCc2ccc(OCCc3ccc(F)cc3)cc2)o1	536	616	548

Compound	area under concentration-response curve [1]	area under concentration-response curve [2]	area under concentration-response curve [3]
CC(S)C(=O)NCC(=O)O (centres undefined)	547	632	563
CN[C@@H]1[C@@H](O)[C@@H](O[C@@H]2[C@@H](O)[C@H](O[C@H]3O[C@H](CN)[C@@H](O)[C@H](O)[C@H]3O)[C@@H](N)C[C@H]2NC(=O)C(O)CN)OC[C@]1(C)O.O=S(=O)(O)O (some centres undefined)	526	601	553
CC(C(=O)O)c1ccc(-c2ccccc2)c(F)c1 (centres undefined)	469	479	470
CCOC(=O)[C@H](CCc1ccccc1)N[C@H]1CS[C@H](c2cccs2)CN(CC(=O)O)C1=O.Cl	513	584	541
OC[C@H]1O[C@@H]2[C@@H](OC\3=N\C(=N)\C=C/[N@@]23)[C@@H]1O	488	504	472
NCC[S+](=O)([O-])O	495	585	488
CCOc1ccccc1N/N=C1/C(=O)N(c2nc(-c3ccccc3)cs2)N=C1C	569	639	570
Cc1nc(-c2cccnc2)sc1C(=O)Nc1ccccc1-c1cn2c(CN3CCOCC3)csc2n1	454	456	504
Clc1ccccc1CN1CCc2sccc2C1	510	617	543
NC(=O)[C@@H](CC1CC1)[C@@H](CCC(F)(F)F)C(=O)N[C@H]2\N=C(C3=CC=CC=C3)/C4=CC=CC(=C4NC2=O)F	543	573	541
Cc1oncc1C(=O)Nc1ccc(C(F)(F)F)cc1	421	498	481
CC1(C)CC(O)CC(C)(C)N1[O]	517	626	511
N=C(N)c1ccc2[nH]c(-c3cc(CC(=O)N[C@@H](CC(=O)O)C(=O)O)cc(-c4cc([S+](N)(=O)[O-])ccc4O)c3O)nc2c1	595	620	562
Cc1ccc([S+](=O)([O-])Nc2nc3ccccc3nc2Nc2ccc3nsnc3c2)cc1	558	640	535
C[S+](=O)([O-])N(Cc1ccco1)CC(O)Cn1c2ccccc2c2ccccc21 (centres undefined)	477	515	473
C=C(C)[C@@H]1CC[C@]2(C(=O)O)CC[C@]3(C)[C@H](CC[C@@H]4[C@@]5(C)CC[C@H](O)C(C)(C)[C@@H]5CC[C@]43C)[C@@H]12	541	646	587
COC(=O)/C=C/C(=O)N(O)CCCCNCc1ccc(COC(=O)Nc2cccc3ccccc23)cc1	208	245	225
NC1=NC=CC2=C1N=C[N]2[C@@H]3\C=C(CO)/[C@@H](O)[C@H]3O	448	454	403
COc1cc2c(NC3CCN(C)CC3)nc(N3CCCN(C)CC3)nc2cc1OCCCN(C)C	544	641	564
